Consider one molecule from publication PMC10629825, “Genetic validation of PfFKBP35 as an antimalarial drug target” (eLife, 2023).

The EC50 is the concentration giving half of the maximal effect.

What all share (assay type): biochemical
In one test the target is T1, PfFKBP35 (Plasmodium falciparum, UniProt Q8I4V8).
T1 construct: gene FKBP35; endogenous protein in parasite lysate
Put plainly: isothermal dose-response MS-CETSA on parasite protein lysate ([…]°C); live-cell CETSA EC50 […].

Test [1] deals with T2, N6-methyl transferase MT-A70 (Plasmodium falciparum, UniProt Q8I6Z2).
T2 construct: gene PF3D7_0729500; endogenous protein in parasite lysate
Put plainly: isothermal dose-response MS-CETSA on parasite protein lysate (putative target).

Test [2] has as its target T3, pre-mRNA-splicing factor CEF1 (Plasmodium falciparum, UniProt Q7KQL1).
T3 construct: gene PF3D7_1033600; endogenous protein in parasite lysate
The description is as above.

T2 sequence (Q8I6Z2 entry or part of it): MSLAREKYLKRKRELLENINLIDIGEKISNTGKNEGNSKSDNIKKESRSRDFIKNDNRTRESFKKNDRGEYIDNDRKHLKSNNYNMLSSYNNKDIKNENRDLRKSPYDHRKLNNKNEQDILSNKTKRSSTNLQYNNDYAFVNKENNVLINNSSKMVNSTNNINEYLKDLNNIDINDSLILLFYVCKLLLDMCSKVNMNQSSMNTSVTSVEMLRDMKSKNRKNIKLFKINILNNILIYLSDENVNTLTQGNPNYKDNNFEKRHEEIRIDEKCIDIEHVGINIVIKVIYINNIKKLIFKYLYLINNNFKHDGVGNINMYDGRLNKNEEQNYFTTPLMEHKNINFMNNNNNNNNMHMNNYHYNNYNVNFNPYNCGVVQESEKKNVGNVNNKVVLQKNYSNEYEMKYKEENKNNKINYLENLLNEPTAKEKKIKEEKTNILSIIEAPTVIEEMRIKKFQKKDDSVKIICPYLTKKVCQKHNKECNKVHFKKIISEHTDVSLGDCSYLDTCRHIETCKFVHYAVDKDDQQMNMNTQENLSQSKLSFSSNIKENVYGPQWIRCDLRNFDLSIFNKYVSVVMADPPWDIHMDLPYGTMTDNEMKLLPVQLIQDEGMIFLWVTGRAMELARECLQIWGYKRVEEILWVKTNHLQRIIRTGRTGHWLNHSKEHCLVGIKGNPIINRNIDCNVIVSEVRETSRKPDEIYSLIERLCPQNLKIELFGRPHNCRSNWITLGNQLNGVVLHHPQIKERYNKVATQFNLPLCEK
T1 sequence (Q8I4V8 whole entry): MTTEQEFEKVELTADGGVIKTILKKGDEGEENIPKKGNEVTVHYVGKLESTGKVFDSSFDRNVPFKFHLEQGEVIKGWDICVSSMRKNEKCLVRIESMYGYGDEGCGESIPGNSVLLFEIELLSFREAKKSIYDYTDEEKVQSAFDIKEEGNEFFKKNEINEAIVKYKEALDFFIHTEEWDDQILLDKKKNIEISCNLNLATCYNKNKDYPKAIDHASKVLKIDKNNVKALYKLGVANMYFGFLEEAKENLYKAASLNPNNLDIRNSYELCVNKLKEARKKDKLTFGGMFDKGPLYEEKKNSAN
T3 sequence (Q7KQL1 entry or part of it): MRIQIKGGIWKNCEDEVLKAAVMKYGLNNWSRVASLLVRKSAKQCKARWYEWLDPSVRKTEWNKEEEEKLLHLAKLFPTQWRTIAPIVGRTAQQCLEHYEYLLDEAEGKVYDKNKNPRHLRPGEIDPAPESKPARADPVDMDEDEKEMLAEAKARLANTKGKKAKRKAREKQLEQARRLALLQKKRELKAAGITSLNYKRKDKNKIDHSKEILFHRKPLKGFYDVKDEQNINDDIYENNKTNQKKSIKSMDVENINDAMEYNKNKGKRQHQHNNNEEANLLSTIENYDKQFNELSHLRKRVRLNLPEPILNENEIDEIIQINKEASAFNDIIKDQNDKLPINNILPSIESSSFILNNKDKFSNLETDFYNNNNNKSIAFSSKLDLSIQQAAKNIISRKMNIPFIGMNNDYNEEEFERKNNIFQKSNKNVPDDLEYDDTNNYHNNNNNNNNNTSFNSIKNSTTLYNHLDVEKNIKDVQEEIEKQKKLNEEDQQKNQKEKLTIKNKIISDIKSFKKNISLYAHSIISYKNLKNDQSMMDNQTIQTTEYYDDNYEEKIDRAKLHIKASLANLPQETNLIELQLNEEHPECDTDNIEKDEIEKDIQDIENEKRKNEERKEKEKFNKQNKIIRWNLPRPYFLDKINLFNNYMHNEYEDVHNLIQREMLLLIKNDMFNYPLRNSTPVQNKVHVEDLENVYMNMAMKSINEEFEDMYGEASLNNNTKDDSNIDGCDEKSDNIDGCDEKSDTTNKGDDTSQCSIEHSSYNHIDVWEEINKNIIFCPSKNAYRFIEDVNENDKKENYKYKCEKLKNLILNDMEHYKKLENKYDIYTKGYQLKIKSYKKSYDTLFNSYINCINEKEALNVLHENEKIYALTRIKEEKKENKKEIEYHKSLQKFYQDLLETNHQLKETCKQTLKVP

Consider `C=CC[C@@H]1/C=C(\C)C[C@H](C)C[C@H](OC)[C@H]2O[C@@](O)(C(=O)C(=O)N3CCCC[C@H]3C(=O)O[C@H](/C(C)=C/[C@@H]3CC[C@@H](O)[C@H](OC)C3)[C@H](C)[C@@H](O)CC1=O)[C@H](C)C[C@@H]2OC` [FK506], for which the EC50 was found to be 152 nM on PfFKBP35, 2000 nM in test [1] and 3100 nM in test [2].
